Measured values reported in US10526316B2, “Quinoxaline and pyridopyrazine derivatives as PI3Kβ inhibitors” (Janssen Pharmaceutica NV, priority 2015, dated 2020).
Read-outs that look alike come from different tables or passages of the source.

Tests used:
kinase enzymes [1] = molecular target: T1, kinase enzymes (Homo sapiens, UniProt P42345); experiment: Enzyme binding assay (KINOMEscan, DiscoveRx), further kinases of Table A; conditions: MTOR_h
T1 construct: purchased DiscoveRx Corporation, San Diego (contract service, KINOMEscan)
How it was run: (§1)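 Binding affinities were measured on the KINOMEscan platform.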

kinase enzymes [2] = molecular target: T2, kinase enzymes (Homo sapiens, UniProt P42336); experiment: as above; conditions: PIK3Cα_h
T2 construct: purchased DiscoveRx Corporation, San Diego (contract service, KINOMEscan)
T2 sequence (P42336 whole entry): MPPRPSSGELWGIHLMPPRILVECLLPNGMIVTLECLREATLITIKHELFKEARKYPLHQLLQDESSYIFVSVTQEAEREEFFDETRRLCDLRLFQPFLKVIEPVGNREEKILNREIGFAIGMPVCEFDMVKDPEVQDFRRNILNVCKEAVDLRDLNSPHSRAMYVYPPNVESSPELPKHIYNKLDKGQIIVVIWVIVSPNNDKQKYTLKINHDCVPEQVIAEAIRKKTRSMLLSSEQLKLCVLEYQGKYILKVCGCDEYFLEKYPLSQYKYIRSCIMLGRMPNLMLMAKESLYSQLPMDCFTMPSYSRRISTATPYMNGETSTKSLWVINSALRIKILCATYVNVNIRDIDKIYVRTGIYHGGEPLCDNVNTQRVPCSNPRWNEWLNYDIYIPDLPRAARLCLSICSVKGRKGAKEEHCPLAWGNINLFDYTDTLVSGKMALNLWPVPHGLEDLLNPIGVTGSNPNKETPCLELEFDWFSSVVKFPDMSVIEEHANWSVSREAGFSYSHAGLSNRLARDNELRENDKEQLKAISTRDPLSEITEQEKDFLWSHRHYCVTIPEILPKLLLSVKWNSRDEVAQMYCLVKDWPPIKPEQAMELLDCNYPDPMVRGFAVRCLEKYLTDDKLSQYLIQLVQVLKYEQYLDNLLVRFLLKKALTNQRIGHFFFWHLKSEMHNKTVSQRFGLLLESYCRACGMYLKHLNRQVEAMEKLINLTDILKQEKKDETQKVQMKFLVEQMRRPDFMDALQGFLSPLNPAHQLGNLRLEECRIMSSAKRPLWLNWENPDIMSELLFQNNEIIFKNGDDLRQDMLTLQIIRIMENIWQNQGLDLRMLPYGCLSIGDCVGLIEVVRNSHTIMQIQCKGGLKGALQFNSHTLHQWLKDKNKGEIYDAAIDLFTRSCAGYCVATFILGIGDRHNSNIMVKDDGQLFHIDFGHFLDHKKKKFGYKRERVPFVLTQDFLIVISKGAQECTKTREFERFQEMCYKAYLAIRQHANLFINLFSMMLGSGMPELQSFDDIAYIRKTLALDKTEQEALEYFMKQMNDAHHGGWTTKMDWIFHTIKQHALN
How it was run: as §1

kinase enzymes [3] = molecular target: T3, kinase enzymes (Homo sapiens, UniProt P48736); experiment: as above; conditions: PIK3Cγ_h
T3 construct: purchased DiscoveRx Corporation, San Diego (contract service, KINOMEscan)
T3 sequence (P48736 whole entry): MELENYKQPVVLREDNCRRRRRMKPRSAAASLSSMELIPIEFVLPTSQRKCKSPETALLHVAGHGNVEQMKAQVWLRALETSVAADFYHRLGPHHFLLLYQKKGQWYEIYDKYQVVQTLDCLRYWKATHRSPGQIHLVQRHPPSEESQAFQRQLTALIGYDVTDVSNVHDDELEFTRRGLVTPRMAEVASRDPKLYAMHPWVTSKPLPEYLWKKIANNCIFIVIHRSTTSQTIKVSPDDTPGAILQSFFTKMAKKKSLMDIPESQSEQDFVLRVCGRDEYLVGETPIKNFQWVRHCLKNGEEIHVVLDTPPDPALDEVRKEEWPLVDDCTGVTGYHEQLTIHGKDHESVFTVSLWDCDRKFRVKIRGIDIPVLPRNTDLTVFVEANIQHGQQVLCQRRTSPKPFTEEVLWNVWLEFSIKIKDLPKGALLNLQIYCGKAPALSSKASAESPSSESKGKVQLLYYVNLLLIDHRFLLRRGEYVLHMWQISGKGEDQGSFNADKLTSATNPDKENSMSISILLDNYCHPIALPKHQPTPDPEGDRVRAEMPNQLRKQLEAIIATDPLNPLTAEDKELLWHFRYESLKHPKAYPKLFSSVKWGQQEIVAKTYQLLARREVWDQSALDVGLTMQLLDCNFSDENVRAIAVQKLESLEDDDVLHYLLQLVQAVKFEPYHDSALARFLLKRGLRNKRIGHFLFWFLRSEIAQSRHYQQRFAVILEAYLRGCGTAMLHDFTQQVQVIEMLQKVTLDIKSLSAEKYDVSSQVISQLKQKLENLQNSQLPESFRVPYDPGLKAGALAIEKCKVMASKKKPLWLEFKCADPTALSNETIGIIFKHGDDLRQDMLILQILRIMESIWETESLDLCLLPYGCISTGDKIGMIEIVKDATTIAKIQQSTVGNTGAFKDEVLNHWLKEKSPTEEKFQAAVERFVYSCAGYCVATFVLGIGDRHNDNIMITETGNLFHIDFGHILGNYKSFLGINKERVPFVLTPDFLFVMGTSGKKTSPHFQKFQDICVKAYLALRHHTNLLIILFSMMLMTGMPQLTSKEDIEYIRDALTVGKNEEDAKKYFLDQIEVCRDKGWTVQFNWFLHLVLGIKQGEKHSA
How it was run: as §1

[4] = test system: Akt phosphorylated at Ser473 in PC-3 cells; experiment: Cellular assay: phosphorylation of Akt at Ser473 in PC-3 cells (MSD ELISA); type: cell-based; conditions: PC-3 cells, 60 min compound incubation, MSD ELISA, read-out: IC50 pAkt_S473
How it was run: (§2)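 Phospho-Akt in whole-cell lysates is quantified by electrochemiluminescent immunoassay using phospho-site capture and total-Akt detection antibodies.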

[5] = test system: Akt phosphorylated at Thr308 in PC-3 cells; experiment: Cellular assay: phosphorylation of Akt at Thr308 in PC-3 cells (MSD ELISA); type: cell-based; conditions: PC-3 cells, 60 min compound incubation, MSD ELISA, read-out: IC50 pAkt_Thr308
How it was run: as §2

PI3Kδ = molecular target: T4, PI3Kδ (Homo sapiens, UniProt O00329); experiment: Enzyme binding assay (KINOMEscan, DiscoveRx); conditions: PIK3Cδ_h
T4 construct: purchased DiscoveRx Corporation, San Diego (contract service, KINOMEscan)
T4 sequence (O00329 1-1044): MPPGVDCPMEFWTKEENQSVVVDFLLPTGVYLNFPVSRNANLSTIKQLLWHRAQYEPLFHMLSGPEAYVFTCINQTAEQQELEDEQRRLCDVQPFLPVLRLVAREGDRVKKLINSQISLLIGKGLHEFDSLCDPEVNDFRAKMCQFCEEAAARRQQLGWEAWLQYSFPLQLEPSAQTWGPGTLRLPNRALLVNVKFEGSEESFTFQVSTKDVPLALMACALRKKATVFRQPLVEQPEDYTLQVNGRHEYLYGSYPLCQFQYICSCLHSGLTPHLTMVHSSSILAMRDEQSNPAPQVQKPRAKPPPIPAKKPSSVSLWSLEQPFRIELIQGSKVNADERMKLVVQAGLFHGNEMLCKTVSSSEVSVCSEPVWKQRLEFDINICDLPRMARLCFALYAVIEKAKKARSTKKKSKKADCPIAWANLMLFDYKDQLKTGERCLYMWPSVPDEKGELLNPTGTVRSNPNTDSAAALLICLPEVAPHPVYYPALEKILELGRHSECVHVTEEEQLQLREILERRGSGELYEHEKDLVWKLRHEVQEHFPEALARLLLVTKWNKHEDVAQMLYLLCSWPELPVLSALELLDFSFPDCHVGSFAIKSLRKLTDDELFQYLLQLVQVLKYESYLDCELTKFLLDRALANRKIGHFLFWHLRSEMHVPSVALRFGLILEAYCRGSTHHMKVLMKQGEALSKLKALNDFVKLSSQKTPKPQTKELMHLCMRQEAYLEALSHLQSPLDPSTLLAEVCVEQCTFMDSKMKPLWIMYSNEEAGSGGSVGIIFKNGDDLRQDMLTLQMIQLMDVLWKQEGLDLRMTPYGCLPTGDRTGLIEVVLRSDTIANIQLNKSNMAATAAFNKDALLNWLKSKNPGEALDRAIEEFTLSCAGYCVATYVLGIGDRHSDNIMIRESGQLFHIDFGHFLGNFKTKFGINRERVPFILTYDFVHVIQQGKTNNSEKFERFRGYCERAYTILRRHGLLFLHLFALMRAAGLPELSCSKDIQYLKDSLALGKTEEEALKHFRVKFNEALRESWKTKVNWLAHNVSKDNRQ
How it was run: as §1

PI3Kβ = molecular target: T5, PI3Kβ (Homo sapiens, UniProt P42338); experiment: Enzyme binding assay (KINOMEscan, DiscoveRx); conditions: PIK3Cβ_h, read-out: Kd PIK3Cβ_h
T5 construct: purchased DiscoveRx Corporation, San Diego (contract service, KINOMEscan)
T5 sequence (P42338 whole entry): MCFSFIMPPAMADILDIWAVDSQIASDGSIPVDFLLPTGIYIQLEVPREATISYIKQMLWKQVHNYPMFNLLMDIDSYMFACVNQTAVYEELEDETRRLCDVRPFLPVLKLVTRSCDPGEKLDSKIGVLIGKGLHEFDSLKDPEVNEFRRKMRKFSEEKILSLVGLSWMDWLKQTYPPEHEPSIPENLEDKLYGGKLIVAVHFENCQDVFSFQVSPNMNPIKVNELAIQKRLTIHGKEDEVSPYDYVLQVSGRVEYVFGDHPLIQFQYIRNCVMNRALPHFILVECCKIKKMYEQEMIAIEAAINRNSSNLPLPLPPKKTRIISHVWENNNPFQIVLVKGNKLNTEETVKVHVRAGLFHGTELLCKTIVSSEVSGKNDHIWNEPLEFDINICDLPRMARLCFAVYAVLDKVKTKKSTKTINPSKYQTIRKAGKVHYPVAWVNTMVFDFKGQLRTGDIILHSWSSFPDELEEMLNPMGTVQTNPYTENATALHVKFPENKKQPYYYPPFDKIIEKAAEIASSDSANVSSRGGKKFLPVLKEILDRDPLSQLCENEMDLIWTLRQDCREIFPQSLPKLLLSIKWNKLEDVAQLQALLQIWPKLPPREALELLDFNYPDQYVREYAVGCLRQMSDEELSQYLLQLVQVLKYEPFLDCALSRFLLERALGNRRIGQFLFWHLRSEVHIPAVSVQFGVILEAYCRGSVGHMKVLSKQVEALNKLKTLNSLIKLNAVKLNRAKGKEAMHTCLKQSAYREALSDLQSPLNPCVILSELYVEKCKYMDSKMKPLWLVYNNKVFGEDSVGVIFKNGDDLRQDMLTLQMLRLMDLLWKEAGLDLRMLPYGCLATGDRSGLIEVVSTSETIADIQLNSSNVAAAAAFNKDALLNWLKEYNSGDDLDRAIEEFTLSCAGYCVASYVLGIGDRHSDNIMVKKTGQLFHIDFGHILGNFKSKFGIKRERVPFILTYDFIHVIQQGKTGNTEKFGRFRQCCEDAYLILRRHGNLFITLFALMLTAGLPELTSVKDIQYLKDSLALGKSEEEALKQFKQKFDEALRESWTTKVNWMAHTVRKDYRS
How it was run: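 Kinase binding affinities were measured with KINOMEscan technology. Results are given as Kd, the inhibitor binding constant, in nM.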

Row | Structure (SMILES) | Kd (kinase enzymes [1]) | Kd (kinase enzymes [2]) | Kd (kinase enzymes [3]) | IC50 ([4]; Homo sapiens, PC-3, 1 h) | IC50 ([5]; Homo sapiens, PC-3, 1 h) | Kd (PI3Kδ) | Kd (PI3Kβ) | IC50 [4] | IC50 [5]
1 | CNCC1CCN(C(=O)c2cc(C(C)Nc3cc(F)cc(F)c3)c3nc(N4CCOCC4)cnc3c2)CC1 (stereo not shown) [Compound 176] | > 30.2 µM | 2000 nM | 3.47 µM | 16 nM | 15 nM | 102 nM | 1 nM | – | –
2 | CC(Nc1cc(F)cc(F)c1)c1cc(C(=O)N2CCC(NCC(F)(F)F)C2)cc2ncc(N3CCOCC3)nc12 (stereo not shown) [Compound 217] | > 30.2 µM | 2140 nM | 24 µM | 79 nM | 49 nM | 1290 nM | 4 nM | – | –
3 | CC(Nc1cc(F)cc(F)c1)c1cc(C(=O)NS(=O)(=O)C2CC2)cc2ncc(N3CCOCC3)nc12 (stereo not shown) [Compound 218] | 3.31 µM | 537 nM | 3.09 µM | > 513 nM | > 513 nM | 1170 nM | 5 nM | – | –
4 | O=C(NCCO)c1cc(NCc2cc(F)cc(F)c2)c2nc(N3CCOCC3)cnc2c1 [Compound 229] | 12.6 µM | 3890 nM | 20.4 µM | 186 nM | 96 nM | 1740 nM | 7 nM | – | –
5 | Cc1c(CNc2cc(C(=O)NCCO)cc3ncc(N4CCOCC4)nc23)cccc1C(F)(F)F [Compound 231] | > 10 µM | 17000 nM | > 30.2 µM | ~457 nM | 398 nM | > 3310 nM | 52 nM | – | –
6 | COC(=O)c1cc(C(C)Nc2cc(F)cc(F)c2)c2nc(N3CCOCC3)cnc2c1 (stereo not shown) [Compound 235] | > 32 µM | > 32000 nM | 24.5 µM | 214 nM | 79 nM | 7590 nM | 50 nM | – | –
7 | CC(Nc1cc(F)cc(F)c1)c1cc(C(=O)O)cc2ncc(N3CCOCC3)nc12 (stereo not shown) [Compound 236] | 1.32 µM | 112 nM | 0.813 µM | > 513 nM | > 513 nM | 158 nM | 2 nM | – | –
8 | CC(Nc1cc(F)cc(F)c1)c1cc(C(=O)NS(N)(=O)=O)cc2ncc(N3CCOCC3)nc12 (stereo not shown) [Compound 243] | 1.91 µM | 66 nM | 0.145 µM | > 513 nM | > 513 nM | 71 nM | 1 nM | – | –
9 | COC(=O)[C@H]1CCCN1C(=O)c1cc(C(C)Nc2cc(F)cc(F)c2)c2nc(N3CCOCC3)cnc2c1 (stereo partly shown) [Compound 272] | > 30.2 µM | 4900 nM | > 30.2 µM | 151 nM | ~85 nM | 2000 nM | 5 nM | – | –
10 | COC(=O)[C@@H]1CCCN1C(=O)c1cc(C(C)Nc2cc(F)cc(F)c2)c2nc(N3CCOCC3)cnc2c1 (stereo partly shown) [Compound 273] | > 30.2 µM | 6310 nM | > 10 µM | 447 nM | ~257 nM | 2750 nM | 8 nM | – | –
11 | CC(Nc1cc(F)c(F)c(F)c1)c1cc(C(=O)N(C)C2CCNC2)cc2ncc(N3CCOCC3)nc12 (stereo not shown) [Compound 296] | > 30.2 µM | 2950 nM | 6.46 µM | 42 nM | 14 nM | 166 nM | 1 nM | – | –
12 | CC(Nc1ccc(F)c(F)c1)c1cc(C(=O)NCCN(C)C)cc2ncc(N3CCOCC3)nc12 (stereo not shown) [Compound 299b] | > 30.2 µM | 13200 nM | 19.5 µM | – | – | 5250 nM | 60 nM | > 513 nM | > 513 nM
13 | CC(Nc1ccc(F)c(F)c1)c1cc(C(=O)N2CC[C@@H](O)C2)cc2ncc(N3CCOCC3)nc12 (stereo partly shown) [Compound 300] | > 30.2 µM | 2690 nM | 17 µM | 71 nM | 85 nM | 513 nM | 4 nM | – | –
14 | CC(Nc1cc(F)cc(F)c1)c1cc(-c2cc[nH]n2)cc2ncc(N3CCOCC3)nc12 (stereo not shown) [Compound 304] | > 30.2 µM | 7240 nM | 20 µM | > 513 nM | 295 nM | 6760 nM | 62 nM | – | –
15 | CN(Cc1cc(F)cc(F)c1)c1cc(C(=O)N2CCNC(C(F)(F)F)C2)cc2ncc(N3CCOCC3)nc12 (stereo not shown) [Compound 319b] | > 30.2 µM | 4370 nM | > 30.2 µM | > 513 nM | > 513 nM | 1020 nM | 59 nM | – | –
16 | CN(C)C(=O)c1cc(CNc2cc(F)cc(F)c2)c2nc(N3CCOCC3)cnc2c1 [Compound 332] | > 30.2 µM | 2950 nM | 21.4 µM | ~316 nM | 112 nM | 4270 nM | 15 nM | – | –
17 | CC(Nc1cccc(F)c1)c1cc(C(=O)NC[C@@H](C)O)cc2ncc(N3CCOCC3)nc12 (stereo partly shown) [Compound 338] | > 30.2 µM | 2340 nM | 4.37 µM | 275 nM | 98 nM | 2950 nM | 12 nM | – | –
18 | CC(Nc1cc(F)cc(F)c1)c1cc(C(C)(C)O)cc2ncc(N3CCOCC3)nc12 (stereo not shown) [Compound 341] | 21.4 µM | 3390 nM | 8.13 µM | 46 nM | 26 nM | 1480 nM | 17 nM | – | –
19 | CN[C@H]1CCN(C(=O)c2cc(NCc3cc(F)cc(F)c3)c3nc(N4CCOCC4)cnc3c2)C1 [Compound 352] | > 30.2 µM | 2290 nM | 9.77 µM | 14 nM | 21 nM | 1000 nM | 2 nM | – | –
